The subject of data set [1] is TRAC locus. The data set can be described thus: Genomic editing of the TRAC locus in primary human CD3+ T cells by RNP electroporation (NGS: % indels, % frameshift edits, indel pattern).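 As to all read-outs here: total edit is the insertion or deletion frequency at TRAC, and the frameshift value is the share of those indels that shift the coding frame.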 In kind it is cell-based. As to conditions: dgRNA/Cas9 RNP by electroporation, target TRAC; for mean FS edit (%): frameshift edits in primary human CD3+ T cells; for mean total % edit: primary human CD3+ T cells, mean of at least 3 experiments.
From the text: (§1) FIG. 12: Mean (n≥3) editing of CRISPR systems with dgRNAs as indicated to TRAC in HEK cells (stably expressing Cas9) or primary human CD3+ T cells (delivery of dgRNA:Cas9 RNP by electroporation).
FIG. 33C: Genomic editing of the TRAC locus resulting from human primary T cell electroporation with RNP containing the indicated gRNA targeting the TRAC locus is shown. The frequency of insertions or deletions is indicated (% indels) and the percentage of these edits that result in frameshifting of the coding sequence is shown (% frameshift edits).
Data for each experiment are the average from triplicate PCR products.

Data set [2] relates to TRAC. The data set can be described thus: Editing of TRAC by dgRNAs in HEK cells stably expressing Cas9 (NGS). It is filed as cell-based, human. As to conditions: dgRNA delivered to HEK cells stably expressing Cas9, target TRAC, mean of at least 3 experiments.
From the text: as §1
In data set [3] the test system is PDCD1. The data set can be described thus: NGS editing of PDCD1 by dgRNA in HEK cells stably expressing Cas9.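 Also: dgRNA lipofected into Cas9-expressing HEK cells, lysed after 24 h, target amplicon sequenced, editing = reads carrying insertions or deletions as percent of all reads including wild type.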 In kind it is cell-based, human. As to conditions: at least 3 experiments.
From the text: Transfection of Cas9GFP-expressing HEK293 cells (HEK-293_Cas9GFP) was used for primary screening of target specific crRNAs. […] Selected crRNAs were chemically synthesized and delivered in a 96 well format. HEK-293-Cas9GFP cells were transfected with target crRNAs comprising a flagpole region of SEQ ID NO: 6607 in a 1:1 ratio with stock trRNA of SEQ ID NO: 6660. The transfection was mediated using lipofection technology according to manufacturer's protocol (DharmaFECT Duo, GE LifeSciences; or RNAiMax, LifeTechnologies). Transfected cells were lysed 24 h following lipofection and editing (e.g., cleavage) was detected within lysates with the T7E1 assay and/or next generation sequencing (NGS; below).
PCR primers were first designed around the target site, and the genomic area of interest PCR amplified. Additional PCR was performed according to manufacturer's protocols (Illumina) to add the necessary chemistry for sequencing. The amplicons were then sequenced on an Illumina MiSeq instrument. The reads were then aligned to the human reference genome (e.g., hg38) after eliminating those having low quality scores. From the resulting files containing the reads mapped to the reference genome (BAM files), reads which overlap the target region of interest were selected and the number of wild type reads versus the number of reads which contain an insertion or deletion was calculated. The editing percentage was then defined as the total number of reads with insertions or deletions over the total number of reads, including wild type. To determine the pattern of insertions and/or deletions that resulted from the edit, the aligned reads with indels were selected and the number of a reads with a given indel were summed.
Editing of CRISPR systems containing dgRNA molecules comprising targeting domains to sequences of PDCD1 were tested for editing in HEK (gRNA delivered to cells stably expressing Cas9) and CD3+ T cells (gRNA and Cas9 delivered as RNP) according to the methods described herein.
All mean editing % are as measured by NGS and are based on at least 3 experiments.

Here are results for 32 substances from patent US12037583B2, “Compositions and methods for immunooncology” (Novartis AG, priority 2015, dated 2024).

“AAAGCUGCCCUUACCUGGGC (chemistry not given here; listed as Homo sapiens) [CR000976]”: in data set [1], the “mean FS edit (%)” value came out at 1.7% and the “mean total % edit” value was 1.8%. In data set [2], this substance came in with a mean % edit of 2.8%.

With “AACAAAUGUGUCACAAAGUA (chemistry not given here; listed as Homo sapiens) [CR000966]”, in data set [1], the “mean FS edit (%)” value was 21.0% and the “mean total % edit” value amounted to 22.0%. Also, the mean % edit in data set [2] turned out to be 65.2%.

As for “AACGAGAAUCAUCUGCCUGC (chemistry not given here; listed as Homo sapiens) [CR000945]”, in data set [1], the “mean FS edit (%)” value worked out at 2.2% and the “mean total % edit” value turned out to be 2.3%. The mean % edit in data set [2] is given as 32.3%.

As to “AAGGUUCAGAUCAGAAGAGG (chemistry not given here; listed as Homo sapiens) [CR000921]”, in data set [1], the “mean FS edit (%)” value was 11.3% and the “mean total % edit” value came out at 12.7%. Moreover, the mean % edit in data set [2] turned out to be 58.3%.

With “ACAAGUGCCCACAGGAAGCC (chemistry not given here; listed as Homo sapiens) [CR000930]”, in data set [1], the “mean FS edit (%)” value was 7.1% and the “mean total % edit” value was 9.9%. In addition, the mean % edit in data set [2] amounted to 12.2%.

For the substance “ACCAACUCACACAUACAGCC (chemistry not given here; listed as Homo sapiens) [CR000949]”, in data set [1], the “mean FS edit (%)” value came out at 2.5% and the “mean total % edit” value is recorded as 2.5%. In data set [2], this substance returned a mean % edit of 30.2%.

The substance “ACCAGAGAUGUCUGUGCAGG (targeting domain within guide RNA, chemistry not given here, further chemistry not given here; listed as Homo sapiens) [CR000935]” returned a mean % edit in data set [2] of 54.2%.

For “ACCCGGCCACUUUCAGGAGG (chemistry not given here; listed as Homo sapiens) [CR000989]”, in data set [1], the “mean FS edit (%)” value is 18.2% and the “mean total % edit” value is given as 28.2%. Moreover, the mean % edit in data set [2] came to 54.5%.

Take “AGAGCAACAGUGCUGUGGCC (chemistry not given here; listed as Homo sapiens) [CR000970]”: in data set [1], the “mean FS edit (%)” value came to 9.3% and the “mean total % edit” value worked out at 10.9%. This substance also gave a mean % edit in data set [2] of 13.4%.

For the substance “AGAGUGAUUAUUAUUUAUUC (chemistry not given here; listed as Homo sapiens) [CR000941]”, in data set [1], the “mean FS edit (%)” value was 7.6% and the “mean total % edit” value is recorded as 9.6%. This substance also gave a mean % edit in data set [2] of 33.4%.

“AGCAGCUUUCACCUCCUUGG (chemistry not given here; listed as Homo sapiens) [CR001009]”: in data set [1], the “mean FS edit (%)” value worked out at 22.8% and the “mean total % edit” value was determined as 27.3%. The substance further registered a mean % edit in data set [2] of 65.3%.

For “AGGAAGGAGCGAGGGAGCAC (chemistry not given here; listed as Homo sapiens) [CR000996]”, in data set [1], the “mean FS edit (%)” value is on record as 8.6% and the “mean total % edit” value came to 11.1%. The substance further displayed a mean % edit in data set [2] of 52.3%.

Take “CR000889: dgRNA targeting domain to PDCD1 (guide CUCUCUUUGAUCUGCGCCUU; targeting domain within dual guide RNA, chemistry not given here, further chemistry not given here; listed as Homo sapiens)”: in data set [3], the “HEK (NGS) % Editing Mean” value is given as 3%.

Consider “CR000890: dgRNA targeting domain to PDCD1 (guide GCUCUCUUUGAUCUGCGCCU; targeting domain within dual guide RNA, chemistry not given here, further chemistry not given here; listed as Homo sapiens)”, for which the “HEK (NGS) % Editing Mean” value in data set [3] was 5%.

“CR000891: dgRNA targeting domain to PDCD1 (guide CGCAGAUCAAAGAGAGCCUG; targeting domain within dual guide RNA, chemistry not given here, further chemistry not given here; listed as Homo sapiens)”: in data set [3], the “HEK (NGS) % Editing Mean” value came to 29%.

With “CR000892: dgRNA targeting domain to PDCD1 (guide GCAGAUCAAAGAGAGCCUGC; targeting domain within dual guide RNA, chemistry not given here, further chemistry not given here; listed as Homo sapiens)”, the “HEK (NGS) % Editing Mean” value in data set [3] is 45%.

As to “CR000893: dgRNA targeting domain to PDCD1 (guide AGAGCCUGCGGGCAGAGCUC; targeting domain within dual guide RNA, chemistry not given here, further chemistry not given here; listed as Homo sapiens)”, in data set [3], the “HEK (NGS) % Editing Mean” value turned out to be 10%.

In the case of “CR000894: dgRNA targeting domain to PDCD1 (guide AGGGUUUGGAACUGGCCGGC; targeting domain within dual guide RNA, chemistry not given here, further chemistry not given here; listed as Homo sapiens)”, the “HEK (NGS) % Editing Mean” value in data set [3] is listed as 19%.

For the substance “CR000895: dgRNA targeting domain to PDCD1 (guide CACCAGGGUUUGGAACUGGC; targeting domain within dual guide RNA, chemistry not given here, further chemistry not given here; listed as Homo sapiens)”, the “HEK (NGS) % Editing Mean” value in data set [3] was determined as 49%.

For the substance “CR000896: dgRNA targeting domain to PDCD1 (guide CGGCCAGUUCCAAACCCUGG; targeting domain within dual guide RNA, chemistry not given here, further chemistry not given here; listed as Homo sapiens)”, the “HEK (NGS) % Editing Mean” value in data set [3] is listed as 42%.

For “CR000897: dgRNA targeting domain to PDCD1 (guide CAACCACCAGGGUUUGGAAC; targeting domain within dual guide RNA, chemistry not given here, further chemistry not given here; listed as Homo sapiens)”, the “HEK (NGS) % Editing Mean” value in data set [3] was 26%.

Turning to “CR000898: dgRNA targeting domain to PDCD1 (guide CAGUUCCAAACCCUGGUGGU; targeting domain within dual guide RNA, chemistry not given here, further chemistry not given here; listed as Homo sapiens)”, the “HEK (NGS) % Editing Mean” value in data set [3] came out at 11%.

For the substance “CR000899: dgRNA targeting domain to PDCD1 (guide CGACACCAACCACCAGGGUU; targeting domain within dual guide RNA, chemistry not given here, further chemistry not given here; listed as Homo sapiens)”, in data set [3], the “HEK (NGS) % Editing Mean” value was 5%.

Take “CR000903: dgRNA targeting domain to PDCD1 (guide CGCCCACGACACCAACCACC; targeting domain within dual guide RNA, chemistry not given here, further chemistry not given here; listed as Homo sapiens)”: the “HEK (NGS) % Editing Mean” value in data set [3] is listed as 54%.

As to “CR000904: dgRNA targeting domain to PDCD1 (guide CUGGUGGUUGGUGUCGUGGG; targeting domain within dual guide RNA, chemistry not given here, further chemistry not given here; listed as Homo sapiens)”, in data set [3], the “HEK (NGS) % Editing Mean” value turned out to be 70%.

In the case of “CR000914: dgRNA targeting domain to PDCD1 (guide CUGCAGGGACAAUAGGAGCC; targeting domain within dual guide RNA, chemistry not given here, further chemistry not given here; listed as Homo sapiens)”, the “HEK (NGS) % Editing Mean” value in data set [3] is 5%.

As to “CR000915: dgRNA targeting domain to PDCD1 (guide ACAAUAGGAGCCAGGCGCAC; targeting domain within dual guide RNA, chemistry not given here, further chemistry not given here; listed as Homo sapiens)”, in data set [3], the “HEK (NGS) % Editing Mean” value amounted to 35%.

“CR000916: dgRNA targeting domain to PDCD1 (guide CAGGGGCUGGCCGGUGCGCC; targeting domain within dual guide RNA, chemistry not given here, further chemistry not given here; listed as Homo sapiens)”: the “HEK (NGS) % Editing Mean” value in data set [3] was 5%.

Consider “CR000917: dgRNA targeting domain to PDCD1 (guide AAAAGAGUGAGACUCACCAG; targeting domain within dual guide RNA, chemistry not given here, further chemistry not given here; listed as Homo sapiens)”, for which the “HEK (NGS) % Editing Mean” value in data set [3] worked out at 43%.

Regarding “CR000918: dgRNA targeting domain to PDCD1 (guide GAAAAGAGUGAGACUCACCA; targeting domain within dual guide RNA, chemistry not given here, further chemistry not given here; listed as Homo sapiens)”, in data set [3], the “HEK (NGS) % Editing Mean” value was determined as 50%.

For the substance “CR000919: dgRNA targeting domain to PDCD1 (guide GGAAAAGAGUGAGACUCACC; targeting domain within dual guide RNA, chemistry not given here, further chemistry not given here; listed as Homo sapiens)”, the “HEK (NGS) % Editing Mean” value in data set [3] was 42%.

As to “GCCUCCUGCACAGACAUCUC (targeting domain within guide RNA, chemistry not given here, further chemistry not given here; listed as Homo sapiens) [CR000936]”, the mean % edit in data set [2] was 59.7%.
